The subject of the test is Ia^d on colonic endothelium and epithelium. In words: Ia^d expression and anti-Ia^d antibody localization in the gut of BALB/c nu/nu mice given oral tetracycline-HCl (indirect immunoperoxidase staining). Type of test: in vivo, mouse. The protocol: BALB/c nu/nu mice were purchased from Simonsen (Gilroy, Calif.). SCID mice were from the UT Southwestern Medical Center breeding colony. All animals were maintained in microisolation units on sterilized food and water. Where indicated, tetracycline-HCI (Vedeo, St. Joseph, Mo.) was added to drinking water to a final concentration of 1.1 mg/ml (Harkness et al., 1983). Both strains carry the H-2^d haplotype.
For the establishment of solid tumors, a total of 2×10^7 C1300 or C1300 (Muγ) cells, or a mixture of the two, in 200 μl MEM-30% FCS were injected subcutaneously into the right anterior flank of BALB/c nu/nu or SCID mice. Tumor diameters were measured at regular intervals and the animals were euthanized after 16 days (rapidly-growing tumors) or 20 days (slowly-growing tumors). Tumors and normal tissues were excised immediately and snap-frozen over liquid nitrogen. Normal tissues were also harvested from non-tumor-bearing animals. Antibody localization studies were performed in animals bearing 1 cm subcutaneous tumors induced by injection of C1300 and C1300 (Muγ) in the ratio 7:3. One hundred micrograms of unconjugated M5/114 or CAMPATH-2 antibodies or 100 μg biotinylated 11-4.1 or WT-1 antibodies in 100 μl PBS were injected intravenously. At various times thereafter the animals were euthanized and their circulation was flushed with PBS for 5 minutes before removal and freezing of tumors and normal tissues as before. […] frozen sections were cut on a Tissuetek 2 cryostat (Baxter) and air-dried for 2 hours at room temperature. Slides were stored at -20° C. for up to 3 months before assay.
Indirect immunoperoxidase staining for rat IgG was adapted from a method described by Billington et al. (1986). Sections were allowed to return to room temperature, air dried for 30 minutes and fixed in acetone for 15 minutes. After rehydration in PBS for 5 minutes, sections were incubated in a humidified chamber for 45-60 minutes with primary antibodies, diluted optimally in PBS-0.2% BSA, (PBS-BSA). […]

Entries after “also recorded” stand apart in the source; their conditions may differ. Structures can show the parent of a compound that is named as a salt.

`CN(C)[C@@H]1C(O)=C(C(N)=O)C(=O)[C@@]2(O)C(O)=C3C(=O)c4c(O)cccc4[C@@](C)(O)[C@H]3C[C@@H]12` [tetracycline-Hcl, tetracycline-HCI]: under “oral administration before antibody injection”, the “localization of intravenously-injected anti-Ia^d antibody to colonic endothelial cells” value is “abolished localization”. Under “oral, 1-3 weeks”, the “Ia^d expression in the colon and elsewhere in the gut” value is listed as “progressive diminution; also recorded: diminished Ia^d expression”; the “numbers of intravillous CD3-positive cells” value was “dramatic decrease”.

(Values after US5776427A, “Methods for targeting the vasculature of solid tumors” (Board of Regents, The University of Texas System, priority 1995, dated 1998).)
